Columns and labels:
[1] = 101.3 kPa, Liquid
[2] = xn = mol fraction of the nth substance listed; settings: 101.3 kPa, Liquid, x2 = 0

CCCCCCCl [1-chlorohexane]
[1]
Settings | mass density [kg/m3] | viscosity [mPa·s]
293.15 K | 878.52 | 0.7704
298.15 K | 873.75 | 0.7173
303.15 K | 868.98 | 0.6702
308.15 K | 864.21 | 0.6283
313.15 K | 859.44 | 0.591
318.15 K | 854.67 | 0.558
323.15 K | 849.9 | 0.5285
328.15 K | 845.12 | 0.5019
333.15 K | 840.35 | 0.4778

CCCCCC [hexane]
[1]
Settings | mass density [kg/m3] | viscosity [mPa·s]
293.15 K | 659.44 | 0.3163
298.15 K | 654.93 | 0.3036
303.15 K | 650.36 | 0.2914
308.15 K | 645.74 | 0.2797
313.15 K | 641.08 | 0.2685
318.15 K | 636.37 | 0.258
323.15 K | 631.61 | 0.2482
328.15 K | 626.81 | 0.2391
333.15 K | 621.95 | 0.2308

CCCCCC [hexane] + CCCCCCCl
[2]
Settings | mass density [kg/m3] | viscosity [mPa·s]
293.15 K | 659.44 | 0.3163
298.15 K | 654.93 | 0.3036
303.15 K | 650.36 | 0.2914
308.15 K | 645.74 | 0.2797
313.15 K | 641.08 | 0.2685
318.15 K | 636.37 | 0.258
323.15 K | 631.61 | 0.2482
328.15 K | 626.81 | 0.2391
333.15 K | 621.95 | 0.2308

Reference: the NIST ThermoML archive (doi:10.1021/je034002l)
